Data on 17 compounds can be found in patent US10478425B2, “5-phenylazaindole derivative having AMPK-activating activity” (Shionogi & Co., Ltd., priority 2016, dated 2019).

This assay addresses T1, Human AMPK α2β2γ1 (Homo sapiens, UniProt O43741+P54646).
T1 construct: The full length cDNAs of human AMPK β2 (NM_005399.3) and human AMPK α2 (NM_006252.3); The full length cDNAs of human AMPK β2 (NM_005399.3); the full length cDNA of human AMPK γ1 (NM_002733.3) had been inserted into pET28b(+); 6×His (N); made in house; host or cells: Escherichia coli BL21 CodonPlus (DE3)-RIL
Nature of the assay: Test Example 2: activation of phosphorylated human AMPK α2β2γ1 (mobility-shift kinase assay, FL-Peptide 7). As to conditions: for EC150: compound concentration showing 150% relative to the control (100%), human AMPK α2β2γ1 phosphorylated with CaMKK2; for Emax: maximum rate of increase in activity within the measurement range, control = 100%, read-out: Emax. The class given is biochemical. The method in brief: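 His-tagged α2β2γ1 expressed in E. coli was pre-phosphorylated by GST-CaMKKβ (25 °C, 1–1.5 h), then exposed to compound for 10 min (1% DMSO). Reaction: pH 7.0 HEPES, ATP and 1.5 μM FL-Peptide 7 (final), 2 h at 25 °C. Mobility-shift conversion gave % activity increase versus compound-free control.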

T1 sequence (P54646 whole entry): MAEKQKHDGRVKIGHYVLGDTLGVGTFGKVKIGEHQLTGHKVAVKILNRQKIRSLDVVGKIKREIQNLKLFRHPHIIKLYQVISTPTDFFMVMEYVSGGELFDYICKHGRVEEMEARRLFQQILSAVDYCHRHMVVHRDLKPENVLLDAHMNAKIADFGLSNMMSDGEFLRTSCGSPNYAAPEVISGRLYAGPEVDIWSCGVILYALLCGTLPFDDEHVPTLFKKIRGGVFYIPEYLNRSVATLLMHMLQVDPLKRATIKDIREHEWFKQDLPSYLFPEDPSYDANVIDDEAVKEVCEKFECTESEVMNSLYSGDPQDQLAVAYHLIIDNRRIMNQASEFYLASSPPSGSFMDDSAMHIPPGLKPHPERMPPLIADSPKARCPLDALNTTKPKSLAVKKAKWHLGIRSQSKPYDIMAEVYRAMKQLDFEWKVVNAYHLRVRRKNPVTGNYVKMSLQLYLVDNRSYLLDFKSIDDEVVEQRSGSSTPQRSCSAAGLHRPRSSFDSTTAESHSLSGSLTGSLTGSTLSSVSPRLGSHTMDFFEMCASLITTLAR
T1 sequence (O43741 whole entry): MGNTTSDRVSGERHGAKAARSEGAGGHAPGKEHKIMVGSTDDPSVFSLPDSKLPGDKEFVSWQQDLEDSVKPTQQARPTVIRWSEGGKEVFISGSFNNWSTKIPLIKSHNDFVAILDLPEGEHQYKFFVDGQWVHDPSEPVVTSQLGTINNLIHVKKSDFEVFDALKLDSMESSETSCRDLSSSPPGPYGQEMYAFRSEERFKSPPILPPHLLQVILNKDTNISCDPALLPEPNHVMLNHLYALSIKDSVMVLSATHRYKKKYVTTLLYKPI
T1 sequence (P54619 whole entry partner): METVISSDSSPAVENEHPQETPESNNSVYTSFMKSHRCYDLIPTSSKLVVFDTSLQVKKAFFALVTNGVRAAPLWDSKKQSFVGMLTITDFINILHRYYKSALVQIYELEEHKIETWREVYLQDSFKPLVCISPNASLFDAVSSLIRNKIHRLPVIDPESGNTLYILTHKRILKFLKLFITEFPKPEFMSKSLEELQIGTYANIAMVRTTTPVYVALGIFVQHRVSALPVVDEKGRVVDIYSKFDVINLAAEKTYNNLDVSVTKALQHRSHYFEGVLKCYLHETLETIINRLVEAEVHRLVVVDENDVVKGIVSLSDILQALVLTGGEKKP

Take `O[C@@H]1CO[C@H]2[C@@H]1OC[C@H]2Oc1cc2nc(-c3ccc(-c4ccc(O[C@H]5CCOC5)cc4)cc3)c(F)cc2[nH]1` [Compound I-2-85]: the EC150 is on record as 1.5 nM and the Emax (commonly the size of the effect at its maximum, as opposed to the concentration needed) worked out at 500%.
For the compound `CC(C)(O)/C=C/c1ccc(-c2ccc(-c3nc4cc(O[C@@H]5CO[C@H]6[C@@H]5OC[C@H]6O)[nH]c4cc3F)cc2)cc1` [Compound I-2-15], the EC150 amounted to 11 nM and the Emax came to 505%.
The like results for `CS(C)(=O)=Nc1ccc(-c2ccc(-c3nc4cc(O[C@@H]5CO[C@H](CO)C5(F)F)[nH]c4cc3F)cc2)cc1` [Compound I-2-43] were, in that order, 6.2 nM and 514%.
`CNCCOc1ccc(-c2ccc(-c3nc4cc(O[C@@H]5CO[C@H]6[C@@H]5OC[C@H]6O)[nH]c4cc3F)cc2)cc1` [Compound I-1-69]: the EC150 was found to be 1.6 nM and the Emax came to 359%.
The like results for `O[C@@H]1CO[C@H]2[C@@H]1OC[C@H]2Oc1cc2nc(-c3ccc(-c4ccc(C5=NCCO5)cc4)cc3)c(F)cc2[nH]1` [Compound I-1-15] were, in that order, 0.58 nM and 525%.
The matching figures for `COCCCc1ccc(-c2ccc(-c3nc4cc(O[C@@H]5CO[C@H]6[C@@H]5OC[C@H]6O)[nH]c4cc3F)cc2)cc1` [Compound I-2-29]: 48 nM and 367%.
Take `OC1CCN(c2ccc(-c3ccc(-c4nc5cc(O[C@@H]6CO[C@H]7[C@@H]6OC[C@H]7O)[nH]c5cc4F)cc3)cc2)C1` (stereo partly shown) [Compound I-1-59]: the EC150 is listed as 2.9 nM and the maximal effect (Emax) was found to be 470%.
On to `O[C@@H]1CO[C@H]2[C@@H]1OC[C@H]2Oc1cc2nc(-c3ccc(-c4ccc(OC5CCNCC5)cc4)cc3)c(F)cc2[nH]1` [Compound I-2-60], for which the EC150 stood at 2 nM and the maximum response (Emax) came out at 564%.
The matching figures for `COC(=O)NC1CC=C(c2ccc(-c3nc4cc(O[C@@H]5CO[C@H]6[C@@H]5OC[C@H]6O)[nH]c4cc3F)cc2)CC1` (stereo partly shown) [Compound I-1-22]: 3.8 nM and 422%.
The matching figures for `OCCSc1ccc(-c2ccc(-c3nc4cc(O[C@@H]5CO[C@H]6[C@@H]5OC[C@H]6O)[nH]c4cc3F)cc2)cc1` [Compound I-2-16]: 1.8 nM and 623%.
The matching figures for `CP(C)(=O)c1ccc(-c2ccc(-c3nc4cc(O[C@@H]5CO[C@H]6[C@@H]5OC[C@H]6O)[nH]c4cc3F)cc2)cc1` [Compound I-2-56]: 1.6 nM and 618%.
Regarding `CNS(=O)(=O)c1ccc(-c2ccc(-c3nc4cc(O[C@@H]5CO[C@H]6[C@@H]5OC[C@H]6O)[nH]c4cc3F)cc2)nc1` [Compound I-1-32], the EC150 is recorded as 8 nM and the Emax is 456%.
For `CNC(=O)OC1CCN(c2ccc(-c3nc4cc(O[C@@H]5CO[C@H]6[C@@H]5OC[C@H]6O)[nH]c4cc3F)cc2)CC1` [Compound I-1-49], the EC150 came to 19 nM and the Emax stood at 551%.
The matching figures for `O=C1CCCN1c1ccc(-c2ccc(-c3nc4cc(O[C@@H]5CO[C@H]6[C@@H]5OC[C@H]6O)[nH]c4cc3F)cc2)cc1` [Compound I-1-37]: 6.5 nM and 405%.
The matching figures for `CS(C)(=O)=Nc1ccc(-c2ccc(-c3nc4cc(O[C@H]5CCOC5)[nH]c4cc3F)cc2)cc1` [Compound I-1-46]: 6.6 nM and 276%.
On to `O[C@@H]1CO[C@H]2[C@@H]1OC[C@H]2Oc1cc2nc(-c3ccc(-c4ccc(OCC5CCCO5)cc4)cc3)c(F)cc2[nH]1` (stereo partly shown) [Compound I-2-33], for which the EC150 was determined as 20 nM and the maximum response (Emax) was determined as 362%.
The like results for `CS(=O)(=O)NC1CC=C(c2ccc(-c3nc4cc(O[C@@H]5CO[C@H]6[C@@H]5OC[C@H]6O)[nH]c4cc3F)cc2)CC1` (stereo partly shown) [Compound I-1-17] were, in that order, 3.4 nM and 483%.
